From ChEMBL document CHEMBL1201862, “PubChem BioAssay data set” (2004)
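48-hour exposure; five concentrations; linearly interpolated endpoints. Here, GI50 denotes the concentration required for 50% inhibition of growth.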 Calls of active or inactive are those of the source. Cut-off read from the data, not from the text of the source: active = GI50 up to about 1.1 µM and inactive = higher.

Columns and labels:
Test in all cases: NCI anticancer screen, dose series, 48 h
786-0 = system: 786-0
ACHN = system: ACHN
EKVX = system: EKVX
HCC 2998 = system: HCC 2998
HCT-15 = system: HCT-15
HOP-62 = system: HOP-62
HT-29 = system: HT-29
LOX IMVI = system: LOX IMVI
MDA-MB-435 = system: MDA-MB-435
MDA-N = system: MDA-N
MOLT-4 = system: MOLT-4
NCI-H226 = system: NCI-H226
OVCAR-3 = system: OVCAR-3
OVCAR-4 = system: OVCAR-4
SW-620 = system: SW-620
TK-10 = system: TK-10
UACC-257 = system: UACC-257
UACC-62 = system: UACC-62
UO-31 = system: UO-31
RPMI-8226 = system: RPMI-8226

SMILES	GI50 (786-0)	GI50 (ACHN)	GI50 (EKVX)	GI50 (HCC 2998)	GI50 (HCT-15) [µM]	GI50 (HOP-62)	GI50 (HT-29)	GI50 (LOX IMVI)	GI50 (MDA-MB-435)	GI50 (MDA-N)	GI50 (MOLT-4)	GI50 (NCI-H226)	GI50 (OVCAR-3)	GI50 (OVCAR-4)	GI50 (SW-620)	GI50 (TK-10)	GI50 (UACC-257)	GI50 (UACC-62)	GI50 (UO-31)	GI50 (RPMI-8226)
Cc1cc2c(cc1Cl)Sc1nnc(C)n1S2(=O)=O	16.1 µM (inactive)	11.9 µM (inactive)	16 µM (inactive)	17.7 µM (inactive)	11.2	20 µM (inactive)	18.5 µM (inactive)	10.1 µM (inactive)	13 µM (inactive)	13.8 µM (inactive)	14.4 µM (inactive)	30.2 µM (inactive)	12.6 µM (inactive)	12.5 µM (inactive)	15.4 µM (inactive)	15.6 µM (inactive)	13.9 µM (inactive)	15 µM (inactive)	10.6 µM (inactive)	
COc1ccc2nc3cccc([N+](=O)[O-])c3c(NCCN(C)C)c2c1	0.0902 µM (active)	0.0585 µM (active)	0.186 µM (active)	0.0605 µM (active)	0.0716	0.119 µM (active)	0.0573 µM (active)	0.0325 µM (active)	0.0826 µM (active)	0.124 µM (active)	0.103 µM (active)	0.207 µM (active)	0.127 µM (active)	0.116 µM (active)	0.14 µM (active)	0.263 µM (active)	0.191 µM (active)		0.176 µM (active)	0.0318 µM (active)
O=C(Cc1ccc(Cl)cc1)Nc1ccc2oc(-c3ccccc3)nc2c1	57 µM (inactive)	> 100 µM (inactive)	30.8 µM (inactive)	> 100 µM (inactive)	> 100	35.6 µM (inactive)	> 100 µM (inactive)	> 100 µM (inactive)	> 100 µM (inactive)	> 100 µM (inactive)	> 100 µM (inactive)	27.6 µM (inactive)	> 100 µM (inactive)	29.5 µM (inactive)	> 100 µM (inactive)	> 100 µM (inactive)	> 100 µM (inactive)	> 100 µM (inactive)		> 100 µM (inactive)
CCc1cc2c(cc1C(=O)CCC(=O)O)CC1(C2)Cc2cc(CC)c(C(=O)CCC(=O)O)cc2C1	> 100 µM (inactive)	> 100 µM (inactive)	> 100 µM (inactive)	> 100 µM (inactive)	> 100	> 100 µM (inactive)	> 100 µM (inactive)	> 100 µM (inactive)	> 100 µM (inactive)	> 100 µM (inactive)	> 100 µM (inactive)	> 100 µM (inactive)	> 100 µM (inactive)	> 100 µM (inactive)	> 100 µM (inactive)	> 100 µM (inactive)	> 100 µM (inactive)		> 100 µM (inactive)	63.1 µM (inactive)
Cc1ccc(Oc2cc(C)ccc2P(=O)(O)O)cc1	> 100 µM (inactive)		> 100 µM (inactive)	> 100 µM (inactive)	> 100	> 100 µM (inactive)		> 100 µM (inactive)	> 100 µM (inactive)	> 100 µM (inactive)	> 100 µM (inactive)	> 100 µM (inactive)	> 100 µM (inactive)		> 100 µM (inactive)	> 100 µM (inactive)	> 100 µM (inactive)	> 100 µM (inactive)	> 100 µM (inactive)	> 100 µM (inactive)
CSc1nncc(-c2cc3c(c(SC)n2)CCCC3)n1	> 100 µM (inactive)	> 100 µM (inactive)	> 100 µM (inactive)	> 100 µM (inactive)	> 100	30.5 µM (inactive)	> 100 µM (inactive)		> 100 µM (inactive)	> 100 µM (inactive)	> 100 µM (inactive)	> 100 µM (inactive)	> 100 µM (inactive)	> 100 µM (inactive)	> 100 µM (inactive)	> 100 µM (inactive)	> 100 µM (inactive)	> 100 µM (inactive)	> 100 µM (inactive)	> 100 µM (inactive)
COCOc1ccc(C(=O)Oc2cccc3c2OC(C)(C)O3)c(OCOC)c1	> 100 µM (inactive)	> 100 µM (inactive)	> 100 µM (inactive)	62.7 µM (inactive)	83.4	> 100 µM (inactive)	> 100 µM (inactive)	35.7 µM (inactive)	60 µM (inactive)	> 100 µM (inactive)	53.2 µM (inactive)	> 100 µM (inactive)	> 100 µM (inactive)		43.2 µM (inactive)	> 100 µM (inactive)	> 100 µM (inactive)	28.2 µM (inactive)	71.1 µM (inactive)	38.7 µM (inactive)
CC1(C)CC(=O)C(=CNC(N)=S)C(=O)C1	> 100 µM (inactive)	> 100 µM (inactive)	> 100 µM (inactive)	> 100 µM (inactive)	> 100	> 100 µM (inactive)	> 100 µM (inactive)	> 100 µM (inactive)	> 100 µM (inactive)	> 100 µM (inactive)	> 100 µM (inactive)	> 100 µM (inactive)	> 100 µM (inactive)	> 100 µM (inactive)	> 100 µM (inactive)	> 100 µM (inactive)	> 100 µM (inactive)	> 100 µM (inactive)	> 100 µM (inactive)	
